BindingDB's records for doi:10.1016/j.chembiol.2011.02.011 (University of Oklahoma, 2011)
Where a SMILES comes first, the peptide text is derived from it. [ ]: non-standard residue; d: D form. The star is where a group is joined. ξ: configuration not given here. ξR = N=C(N)NCCCC(N)C(=O)O; βNA = c1ccc2cc(N*)ccc2c1

Target: T1, Multidrug efflux pump subunit AcrB (Escherichia coli (strain B / BL21-DE3), UniProt P31224)
T1 sequence (P31224 whole entry): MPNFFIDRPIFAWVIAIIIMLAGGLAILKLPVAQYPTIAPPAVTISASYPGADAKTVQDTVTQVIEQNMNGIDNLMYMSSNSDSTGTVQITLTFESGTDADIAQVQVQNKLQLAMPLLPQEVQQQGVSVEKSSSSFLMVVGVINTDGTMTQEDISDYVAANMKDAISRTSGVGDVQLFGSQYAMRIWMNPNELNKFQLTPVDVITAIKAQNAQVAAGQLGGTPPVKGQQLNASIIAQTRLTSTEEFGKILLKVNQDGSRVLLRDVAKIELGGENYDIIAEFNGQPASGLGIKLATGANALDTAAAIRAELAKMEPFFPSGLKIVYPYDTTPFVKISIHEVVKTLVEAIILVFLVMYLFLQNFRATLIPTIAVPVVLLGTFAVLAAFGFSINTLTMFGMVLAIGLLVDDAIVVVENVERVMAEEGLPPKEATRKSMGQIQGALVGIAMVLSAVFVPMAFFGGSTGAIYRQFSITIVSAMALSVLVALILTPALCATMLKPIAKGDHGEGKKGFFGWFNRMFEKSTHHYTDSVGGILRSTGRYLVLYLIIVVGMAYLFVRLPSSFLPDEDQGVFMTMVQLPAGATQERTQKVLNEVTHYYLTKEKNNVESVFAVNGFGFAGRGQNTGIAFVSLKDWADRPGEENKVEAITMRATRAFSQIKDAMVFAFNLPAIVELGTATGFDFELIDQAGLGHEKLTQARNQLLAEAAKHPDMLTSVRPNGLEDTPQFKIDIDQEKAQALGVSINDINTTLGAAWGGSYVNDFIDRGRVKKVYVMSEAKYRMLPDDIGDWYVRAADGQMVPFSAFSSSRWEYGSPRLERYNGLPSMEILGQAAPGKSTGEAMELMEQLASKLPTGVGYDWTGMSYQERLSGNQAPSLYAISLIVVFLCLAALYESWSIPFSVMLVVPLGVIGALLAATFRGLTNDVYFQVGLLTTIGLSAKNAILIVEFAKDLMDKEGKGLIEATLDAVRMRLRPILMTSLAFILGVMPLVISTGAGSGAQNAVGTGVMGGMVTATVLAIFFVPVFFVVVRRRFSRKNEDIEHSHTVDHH
Assay: Binding Assay
From the text: Binding of inhibitors and substrates to immobilized AcrB.

NC(N)=NCCCC(NC(=O)[C@@H](N)Cc1ccccc1)C(=O)Nc1ccc2ccccc2c1 (stereo partly drawn) [MC-207,110] (H-Phe-[ξR]-βNA)
Kd (pH 6): 110 µM
Kd (pH 7.5): 590 µM

CO[C@@H]1[C@@H](OC(N)=O)[C@@H](O)[C@H](Oc2ccc3c(O)c(NC(=O)c4ccc(O)c(CC=C(C)C)c4)c(=O)oc3c2C)OC1(C)C [Coumarin-Based, DNA Gyrase Inhibitor]
Kd (pH 7.5): 530 µM
